# According to US20130123460A1, “PEPTIDE FOR IMPROVING BIOSTABILITY OF BIOACTIVE SUBSTANCE, AND BIOACTIVE SUBSTANCE HAVING IMPROVED BIOSTABILITY” (priority 2010, published 2013):
# Like-named read-outs stand apart in the source and are kept apart here. Where no end group is shown, it is not given here.
# Legend:
# [1] = Plasma stability of GLP-1 peptide complex (remaining rate in rat plasma, HPLC/MS); type: in vitro ADME, SD rats; settings: for remaining at 8 h, 0.5 μmol/L / remaining at 48 h, 0.5 μmol/L: SD
# Excerpt: SD rats were anesthetized with diethyl ether, whole blood was collected and a plasma fraction was separated therefrom.
# [2] = biological target: T1, endogenous GLP-1 receptor (Mus musculus, UniProt O35659); experiment: Insulin secretion capacity of GLP-1 peptide complex in MIN 6 cells; type: cell-based; settings: for Insulin secretion capacity (% of control): MIN 6 cells, 1000 pM, 15 mM glucose, control = native GLP-1 at 1000 pM;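 as to all read-outs here: insulin released into the supernatant of MIN 6 cultures quantified by ELISA, absorbance read at 450 nm with 620 nm reference after substrate addition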
# T1 construct: expressing an endogenous GLP-1 receptor; endogenous in cells; host or cells: MIN 6 mouse insulinoma cells (obtained from a person)
# T1 sequence (O35659 22-463): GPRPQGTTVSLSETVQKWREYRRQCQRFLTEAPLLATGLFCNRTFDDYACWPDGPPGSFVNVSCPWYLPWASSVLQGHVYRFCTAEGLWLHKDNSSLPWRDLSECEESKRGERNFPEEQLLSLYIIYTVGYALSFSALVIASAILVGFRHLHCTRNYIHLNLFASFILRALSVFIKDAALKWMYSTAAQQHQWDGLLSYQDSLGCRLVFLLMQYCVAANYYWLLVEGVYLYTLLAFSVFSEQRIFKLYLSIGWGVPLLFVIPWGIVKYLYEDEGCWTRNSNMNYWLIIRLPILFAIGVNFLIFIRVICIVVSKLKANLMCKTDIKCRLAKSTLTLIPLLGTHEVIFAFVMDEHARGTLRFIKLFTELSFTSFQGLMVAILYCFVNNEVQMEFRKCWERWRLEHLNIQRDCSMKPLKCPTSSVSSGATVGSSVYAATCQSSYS
# Description: MIN 6 was seeded on a multi-plate, which was cultivated at 37° C. for 48 hours. After that, the culture was washed twice with a KRH buffer solution including 2 mM glucose solution (including NaCl 119 mM, KCl 4.74 mM, CaCl2 2.54 mM, MgCl2 1.19 mM, KH2PO4 1.19 mM, 10 mM HEPES buffer solution pH7.3, and 0.1% BSA), and then it was incubated at 37° C. for one hour. […] A supernatant thereof was recovered, and an amount of insulin secreted was measured. The measurement of the insulin was performed in an enzyme-linked immunosorbent assay (ELISA), and an absorbance was measured at 450 nm (a sub-wavelength: 620 nm) after the addition of a substrate.
# EC50 values thereof were calculated in the same manner as in Part 2, and the influence on the bioactivity caused by the addition of the partial peptide of the GA module were inspected in detail.
# The analysis was performed using the following calculation formula.
# [3] = rat plasma, 0.5 μmol/L, 37° C., 8 hours, relative to 0 hour = 100%, read-out: Remaining rate in plasma after 8 hours (%)
# [4] = rat plasma, 0.5 μmol/L, 37° C., 48 hours, relative to 0 hour = 100%, read-out: Remaining rate in plasma after 48 hours (%)
"remaining at 8 h, 0.5 μmol/L ([1]; rat, plasma)","remaining at 48 h, 0.5 μmol/L ([1]; rat, plasma)",Insulin secretion capacity (% of control) [2],Molecule,other results
63%,0%,–,"CC[C@H](C)[C@H](NC(=O)[C@H](Cc1ccccc1)NC(=O)[C@H](CCC(=O)O)NC(=O)[C@H](CCCCN)NC(=O)[C@H](C)NC(=O)[C@H](C)NC(=O)[C@H](CCC(N)=O)NC(=O)CNC(=O)[C@H](CCC(=O)O)NC(=O)[C@H](CC(C)C)NC(=O)[C@H](Cc1ccc(O)cc1)NC(=O)[C@H](CO)NC(=O)[C@H](CO)NC(=O)[C@@H](NC(=O)[C@H](CC(=O)O)NC(=O)[C@H](CO)NC(=O)[C@@H](NC(=O)[C@H](Cc1ccccc1)NC(=O)[C@@H](NC(=O)CNC(=O)[C@H](CCC(=O)O)NC(=O)[C@H](CO)NC(=O)[C@@H](N)Cc1c[nH]cn1)[C@@H](C)O)[C@@H](C)O)C(C)C)C(=O)N[C@@H](C)C(=O)N[C@@H](Cc1c[nH]c2ccccc12)C(=O)N[C@@H](CC(C)C)C(=O)N[C@H](C(=O)N[C@@H](CCCCN)C(=O)NCC(=O)N[C@@H](CC(=O)O)C(=O)N[C@@H](CCC(=O)O)C(=O)N[C@H](C(=O)N[C@@H](CC(C)C)C(=O)N[C@@H](C)C(=O)N[C@@H](C)C(N)=O)[C@@H](C)CC)C(C)C [Comparative Example 9, [Ser8]-GLP-1(7-35)-GAm(39-44)-NH2, reference compound]",–
35%,0%,–,"CC[C@H](C)[C@H](NC(=O)[C@H](CCC(=O)O)NC(=O)[C@H](CC(=O)O)NC(=O)[C@@H](NC(=O)CNC(=O)[C@H](CCCCN)NC(=O)[C@@H](NC(=O)[C@H](CC(C)C)NC(=O)[C@H](Cc1c[nH]c2ccccc12)NC(=O)[C@H](C)NC(=O)[C@@H](NC(=O)[C@H](Cc1ccccc1)NC(=O)[C@H](CCC(=O)O)NC(=O)[C@H](CCCCN)NC(=O)[C@H](C)NC(=O)[C@H](C)NC(=O)[C@H](CCC(N)=O)NC(=O)CNC(=O)[C@H](CCC(=O)O)NC(=O)[C@H](CC(C)C)NC(=O)[C@H](Cc1ccc(O)cc1)NC(=O)[C@H](CO)NC(=O)[C@H](CO)NC(=O)[C@@H](NC(=O)[C@H](CC(=O)O)NC(=O)[C@H](CO)NC(=O)[C@@H](NC(=O)[C@H](Cc1ccccc1)NC(=O)[C@@H](NC(=O)CNC(=O)[C@H](CCC(=O)O)NC(=O)[C@H](C)NC(=O)[C@@H](N)Cc1c[nH]cn1)[C@@H](C)O)[C@@H](C)O)C(C)C)[C@@H](C)CC)C(C)C)[C@@H](C)CC)C(N)=O [Comparative Example 10, GLP-1(7-35)-GAm(38-41)-NH2, reference compound]",–
0%,0%,–,"CC[C@H](C)[C@H](NC(=O)CNC(=O)[C@H](CCCCN)NC(=O)[C@@H](NC(=O)[C@H](CC(C)C)NC(=O)[C@H](Cc1c[nH]c2ccccc12)NC(=O)[C@H](C)NC(=O)[C@@H](NC(=O)[C@H](Cc1ccccc1)NC(=O)[C@H](CCC(=O)O)NC(=O)[C@H](CCCCN)NC(=O)[C@H](C)NC(=O)[C@H](C)NC(=O)[C@H](CCC(N)=O)NC(=O)CNC(=O)[C@H](CCC(=O)O)NC(=O)[C@H](CC(C)C)NC(=O)[C@H](Cc1ccc(O)cc1)NC(=O)[C@H](CO)NC(=O)[C@H](CO)NC(=O)[C@@H](NC(=O)[C@H](CC(=O)O)NC(=O)[C@H](CO)NC(=O)[C@@H](NC(=O)[C@H](Cc1ccccc1)NC(=O)[C@@H](NC(=O)CNC(=O)[C@H](CCC(=O)O)NC(=O)[C@H](C)NC(=O)[C@@H](N)Cc1c[nH]cn1)[C@@H](C)O)[C@@H](C)O)C(C)C)[C@@H](C)CC)C(C)C)C(=O)N[C@@H](CC(=O)O)C(=O)N[C@@H](CCC(=O)O)C(N)=O [Comparative Example 11, GLP-1(7-35)-GAm(38-40)-NH2, reference compound]",–
80%,93%,–,"HSEGTFTSDVSSYLEGQAAKEFIAWLVKGKNLINNAKTVEGVKALIDEILAALP-NH2 [Example 17, [Ser8]-GLP-1(7-35)-GAm(22-46)-NH2]",–
–,–,105%,[Ser8]-GLP-1(7-35)-GAm(28-44)-NH2 [Example 14],"Insulin secretion capacity (activity) compared with native GLP-1, in words ([2]; MIN 6 cells, 30, 100, 300 or 1000 pM (FIG. 2, FIG. 3)): almost the same activity as that of the native GLP-1"
–,–,109%,[Ser8]-GLP-1(7-35)-GAm(32-44)-NH2 [Example 10],–
–,–,125%,[Ser8]-GLP-1(7-35)-GAm(38-42)-NH2 [Example 1],–
–,–,120%,[Ser8]-GLP-1(7-35)-GAm(38-44)-NH2 [Example 2],–

# The remaining lines, values behind:
Molecule,"remaining at 8 h, 0.5 μmol/L ([1]; rat, plasma)","remaining at 48 h, 0.5 μmol/L ([1]; rat, plasma)",Insulin secretion capacity (% of control) [2],other results
"CC[C@H](C)[C@H](NC(=O)[C@H](Cc1ccccc1)NC(=O)[C@H](CCC(=O)O)NC(=O)[C@H](CCCCN)NC(=O)[C@H](C)NC(=O)[C@H](C)NC(=O)[C@H](CCC(N)=O)NC(=O)CNC(=O)[C@H](CCC(=O)O)NC(=O)[C@H](CC(C)C)NC(=O)[C@H](Cc1ccc(O)cc1)NC(=O)[C@H](CO)NC(=O)[C@H](CO)NC(=O)[C@@H](NC(=O)[C@H](CC(=O)O)NC(=O)[C@H](CO)NC(=O)[C@@H](NC(=O)[C@H](Cc1ccccc1)NC(=O)[C@@H](NC(=O)CNC(=O)[C@H](CCC(=O)O)NC(=O)CNC(=O)[C@@H](N)Cc1c[nH]cn1)[C@@H](C)O)[C@@H](C)O)C(C)C)C(=O)N[C@@H](C)C(=O)N[C@@H](Cc1c[nH]c2ccccc12)C(=O)N[C@@H](CC(C)C)C(=O)N[C@H](C(=O)N[C@@H](CCCCN)C(=O)NCC(=O)N[C@@H](CCCNC(=N)N)C(=O)N1CCC[C@H]1C(=O)N[C@@H](CO)C(=O)N[C@@H](CO)C(N)=O)C(C)C [Comparative Example 12, [Gly8]-GLP-1(7-35)-RPSS-NH2, reference compound]",–,–,–,"remaining at 8 h, 0.5 μmol/L [1, 3]: 34%; remaining at 48 h, 0.5 μmol/L [1, 4]: 0%; Remaining rate in plasma after 48 hours (%) ([1]; rat plasma, 0.5 μmol/L, 37° C., 48 hours, relative to 0 hour = 100%): 0%"
"CC[C@H](C)[C@H](NC(=O)[C@H](Cc1ccccc1)NC(=O)[C@H](CCC(=O)O)NC(=O)[C@H](CCCCN)NC(=O)[C@H](C)NC(=O)[C@H](C)NC(=O)[C@H](CCC(N)=O)NC(=O)CNC(=O)[C@H](CCC(=O)O)NC(=O)[C@H](CC(C)C)NC(=O)[C@H](Cc1ccc(O)cc1)NC(=O)[C@H](CO)NC(=O)[C@H](CO)NC(=O)[C@@H](NC(=O)[C@H](CC(=O)O)NC(=O)[C@H](CO)NC(=O)[C@@H](NC(=O)[C@H](Cc1ccccc1)NC(=O)[C@@H](NC(=O)CNC(=O)[C@H](CCC(=O)O)NC(=O)[C@H](CO)NC(=O)[C@@H](N)Cc1c[nH]cn1)[C@@H](C)O)[C@@H](C)O)C(C)C)C(=O)N[C@@H](C)C(=O)N[C@@H](Cc1c[nH]c2ccccc12)C(=O)N[C@@H](CC(C)C)C(=O)N[C@H](C(=O)N[C@@H](CCCCN)C(=O)NCC(=O)N[C@@H](CC(C)C)C(=O)N[C@H](C(=O)N[C@@H](CC(=O)O)C(=O)N[C@@H](CCC(=O)O)C(=O)N[C@H](C(=O)N[C@@H](CC(C)C)C(=O)N[C@@H](C)C(=O)N[C@@H](C)C(N)=O)[C@@H](C)CC)[C@@H](C)CC)C(C)C [Example 3, [Ser8]-GLP-1(7-35)-GAm(37-44)-NH2]",–,–,82%,"remaining at 8 h, 0.5 μmol/L [1, 3]: 113%; remaining at 48 h, 0.5 μmol/L [1, 4]: 95%"
"CC[C@H](C)[C@H](NC(=O)CNC(=O)[C@H](CCCCN)NC(=O)[C@@H](NC(=O)[C@H](CC(C)C)NC(=O)[C@H](Cc1c[nH]c2ccccc12)NC(=O)[C@H](C)NC(=O)[C@@H](NC(=O)[C@H](Cc1ccccc1)NC(=O)[C@H](CCC(=O)O)NC(=O)[C@H](CCCCN)NC(=O)[C@H](C)NC(=O)[C@H](C)NC(=O)[C@H](CCC(N)=O)NC(=O)CNC(=O)[C@H](CCC(=O)O)NC(=O)[C@H](CC(C)C)NC(=O)[C@H](Cc1ccc(O)cc1)NC(=O)[C@H](CO)NC(=O)[C@H](CO)NC(=O)[C@@H](NC(=O)[C@H](CC(=O)O)NC(=O)[C@H](CO)NC(=O)[C@@H](NC(=O)[C@H](Cc1ccccc1)NC(=O)[C@@H](NC(=O)CNC(=O)[C@H](CCC(=O)O)NC(=O)[C@H](C)NC(=O)[C@@H](N)Cc1c[nH]cn1)[C@@H](C)O)[C@@H](C)O)C(C)C)[C@@H](C)CC)C(C)C)C(=O)N[C@@H](CC(=O)O)C(=O)N[C@@H](CCC(=O)O)C(=O)N[C@H](C(=O)N[C@@H](CC(C)C)C(N)=O)[C@@H](C)CC [Example 5, GLP-1(7-35)-GAm(38-42)-NH2]",–,–,112%,"remaining at 8 h, 0.5 μmol/L [1, 3]: 73%; remaining at 48 h, 0.5 μmol/L [1, 4]: 83%"
"GLP-1(7-36)-NH2 [Comparative Example 1, reference compound]",–,–,100%,–
"HSEGTFTSDVSSYLEEEAAKEFIAWLVKGGPSSGAPPPS-NH2 [Comparative Example 13, reference compound]",57%,12%,–,–
"HSEGTFTSDVSSYLEGQAAKEFIAWLVKGAKTVEGVKAL-NH2 [Comparative Example 8, [Ser8]-GLP-1(7-35)-GAm(28-37)-NH2, reference compound]",27%,0%,–,–
"HSEGTFTSDVSSYLEGQAAKEFIAWLVKGAKTVEGVKALIDE-NH2 [Comparative Example 7, [Ser8]-GLP-1(7-35)-GAm(28-40)-NH2, reference compound]",81%,4%,–,–
